Data published in patent publication US7915284B2, “2-aryl-6-phenylimidazo[1,2-a]pyridine derivatives, preparation thereof and therapeutic use thereof” (Sanofi-Aventis, priority 2006, dated 2011).

Biological target: T1, mouse Nurr1 receptor (Mus musculus, UniProt Q06219)
T1 construct: endogenously expressing the mouse Nurr1 receptor; host or cells: Neuro-2A (N2A) mouse neuroblastoma cells stably transfected with 8NBRE-luciferase
Experiment: In vitro activity on N2A cells (NBRE-luciferase reporter)
Format: cell-based
Conditions: N2A cell line endogenously expressing mouse Nurr1, stably transfected with 8NBRE-luciferase; 24 hours incubation
Description: Evaluation of the In Vitro Activity on N2A Cells
Assays consisted in measuring the in vitro activity of the compounds of the invention on a cell line (N2A) endogenously expressing the mouse Nurr1 receptor and stably transfected with the NOT binding response element (NBRE) coupled to the luciferase reporter gene. The EC50 values are between 0.01 and 1000 nM. The assays were carried out according to the procedure described below.
The Neuro-2A cell line comes from a standard commercial source (ATCC). The Neuro-2A clone was obtained from a spontaneous tumour originating from an A albino mouse strain, by R. J Klebe et col. This Neuro-2A line is subsequently stably transfected with 8NBRE-luciferase. The N2A-8NBRE cells are cultured until confluence in 75 cm^2 culture flasks containing DMEM supplemented with 10% of foetal calf serum, 4.5 g/l of glucose and 0.4 mg/ml of geneticin. After a week of culture, the cells are recovered with 0.25% trypsin for 30 seconds and then resuspended in DMEM without phenol red, containing 4.5 g/l of glucose and 10% of Hyclone delipidized serum, and deposited into transparent-bottom 96-well white plates. The cells are deposited at a rate of 60 000 per well in 75 μl for 24 hours before the addition of the products. The products are applied in 25 μl and incubated for a further 24 hours. On the day of the measurement, an equivalent volume (100 μl) of Steadylite are added to each well and then left for a period of 30 minutes in order to obtain complete cell lysis and maximum signal production. The plates are subsequently measured in a luminescence counter for microplates after having been sealed with an adhesive film. The products are prepared in the form of a stock solution at 10^−2M and then diluted in 100% of DMSO. Each product concentration is prediluted in culture medium before incubation with the cells, thus containing 0.625% final concentration of DMSO.

T1 sequence (Q06219 whole entry): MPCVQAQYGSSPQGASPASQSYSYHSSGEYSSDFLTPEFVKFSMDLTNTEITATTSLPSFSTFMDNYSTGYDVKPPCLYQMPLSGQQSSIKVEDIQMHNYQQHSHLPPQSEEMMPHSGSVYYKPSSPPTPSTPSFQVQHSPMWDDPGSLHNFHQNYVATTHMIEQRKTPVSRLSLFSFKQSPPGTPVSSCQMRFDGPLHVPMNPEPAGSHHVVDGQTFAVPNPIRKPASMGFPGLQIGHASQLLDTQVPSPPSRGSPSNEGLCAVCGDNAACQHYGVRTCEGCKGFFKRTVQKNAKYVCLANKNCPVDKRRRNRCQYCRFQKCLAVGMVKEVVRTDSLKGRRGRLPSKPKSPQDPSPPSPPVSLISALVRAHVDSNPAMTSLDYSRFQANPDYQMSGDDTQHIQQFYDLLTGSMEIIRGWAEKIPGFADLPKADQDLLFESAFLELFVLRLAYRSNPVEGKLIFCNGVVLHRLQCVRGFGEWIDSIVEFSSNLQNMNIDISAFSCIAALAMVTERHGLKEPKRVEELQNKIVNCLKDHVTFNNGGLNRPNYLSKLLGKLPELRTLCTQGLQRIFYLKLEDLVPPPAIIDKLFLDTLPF

Row | EC50 [nM] | SMILES
1 | 0.7 | CC(C)(O)c1cccc(-c2ccc3nc(-c4ccc(Cl)cc4)cn3c2)c1 [Compound 39, 2-{3-[2-(4-Chlorophenyl)imidazo[1,2-a]pyridin-6-yl]phenyl}propan-2-ol]
2 | 3.6 | COCCOCc1cccc(-c2ccc3nc(-c4ccc5ccccc5c4)cn3c2)c1 [Compound 17, 6-[3-(2-Methoxyethoxymethyl)phenyl]-2-(naphthalen-2-yl)imidazo[1,2-a]pyridine]
3 | 0.7 | OCc1ccccc1-c1ccc2nc(-c3ccc(Cl)cc3)cn2c1 [Compound 40, {2-[2-(4-Chlorophenyl)imidazo[1,2-a]pyridin-6-yl]phenyl}methanol]
4 | 14 | Cc1ccc(-c2cn3cc(-c4cccc(COc5ccc(Cl)cc5)c4)ccc3n2)cc1 [Compound 31, 6-[3-(4-Chlorophenoxymethyl)phenyl]-2-p-tolylimidazo[1,2-a]pyridine]
